Data on two compounds can be found in US9701658B2, “Amide derivatives as TTX-S blockers” (RaQualia Pharma Inc., priority 2012, dated 2017).

Holding throughout (assay type): cell-based
Experiment [1] deals with T1, human Nav1.7 (hSCN9A) (Homo sapiens, UniProt Q15858).
T1 construct: expressed in transfected cells; host or cells: CHO
The experiment in a line: Electrophysiology assay for Navs, whole cell patch clamp, human Nav1.7 (hSCN9A) expressing CHO cells. The settings on record: Kinact, read-out: activity (Ki) against Nav1.7, dissociation constant for the inactivated state. As to the method: Electrophysiology Assay for Navs
Whole cell patch clamp recording is used to assess the efficacy or selectivity of Na channel blocker on human Nav1.3 (hSCN3A) expressing HEK293 cells or human Nv1.7 (hSCN9A) expressing CHO cells. Human Nav1.3 expressing HEK293 cells are grown in growth media which contain: Dulbecco's […] (DMEM), 10% heat-inactivated fetal bovine serum (FBS) (Hyclone Laboratories Inc), 100 microgram/mL Penicillin/100 U/mL Streptomycin, 150 microgram/mL Zeocin, 3 microgram/mL Geneticin. Human Nav1.7 expressing CHO cells are grown in growth media which comprised: HAM/F-12, 9% heat-inactivated FBS (Hyclone Laboratories Inc) and 100 microgram/mL Penicillin/100 U/mL Streptomycin, 100 microgram/mL Hygromycin.
Na channel expressing cells are dissociated by 0.05% trypsine-EDTA, and then seeded on cover glass for 24 to 48 hr. […]
The normalized steady-state inactivation curve is constructed using 2 sec (for vehicle) or 60 sec (for drugs) conditioning pulse to different potentials followed immediately by the test pulse to −10 mV. […] The affinity of drugs to resting state of Na channels (Kresting or Kr) is assessed by 30 msec test pulse from a negative holding potential of −120 or −130 mV, where virtually all channels are in the resting state. Kr value is calculated by a conventional 1:1 binding model: Kresting(Kr)={[drug]Imax,drug/(Imax,control−Imax,drug)} […]
In general terms: In patch-clamp work, channel activity is measured electrically.

Experiment [2] addresses T2, human Nav1.7 (Homo sapiens, UniProt Q15858).
T2 construct: expressed in transfected cells; host or cells: CHO
The experiment in a line: FRET assay, human Nav1.7 channels (CHO, EFS on FDSS). The settings on record: read-out: activity (IC50) against Nav1.7. The protocol:
(§1) The ability of the amide derivatives of the formula (I) to inhibit the Nav1.3, Nav1.7 and Nav1.5 channels is measured by Fluorescence Resonance Energy Transfer (FRET) assay and electrophysiology assay described below.
(§2) This screen is used to determine the effects of compounds on human Nav1.3, human Nav1.7, and human Nav1.5 channels, utilizing electrical field stimulation (EFS) system in 96-well plate format on FDSS (Hamamatsu Photonics) platform. The change of membrane potential is monitored with FRET dye pair, oxonol (DiSBAC2(3)) and coumarin (CC2-DMPE).
CHO cells expressing human Nav1.7 channels are grown in T225 flasks, in a 5% CO2 humidified incubator to about 80% confluence. Media composition consists of HAM/F12 with Glutamax I, 10% FCS, 100 units/mL Penicillin and 100 microgram/mL Hygromycin. […]
(§3) The data are analyzed and reported as normalized ratios of intensities measured at […]. […]
(§4) This analysis is performed using a computerized specific program designed for FDSS generated data. Fluorescence ratio values are plotted using XLfit™ to determine an IC50 value for each compound.

The target in experiment [3] is T3, human Nav1.5 (Homo sapiens, UniProt Q14524).
T3 construct: expressed in transfected cells; host or cells: HEK293
T3 sequence (Q14524 whole entry): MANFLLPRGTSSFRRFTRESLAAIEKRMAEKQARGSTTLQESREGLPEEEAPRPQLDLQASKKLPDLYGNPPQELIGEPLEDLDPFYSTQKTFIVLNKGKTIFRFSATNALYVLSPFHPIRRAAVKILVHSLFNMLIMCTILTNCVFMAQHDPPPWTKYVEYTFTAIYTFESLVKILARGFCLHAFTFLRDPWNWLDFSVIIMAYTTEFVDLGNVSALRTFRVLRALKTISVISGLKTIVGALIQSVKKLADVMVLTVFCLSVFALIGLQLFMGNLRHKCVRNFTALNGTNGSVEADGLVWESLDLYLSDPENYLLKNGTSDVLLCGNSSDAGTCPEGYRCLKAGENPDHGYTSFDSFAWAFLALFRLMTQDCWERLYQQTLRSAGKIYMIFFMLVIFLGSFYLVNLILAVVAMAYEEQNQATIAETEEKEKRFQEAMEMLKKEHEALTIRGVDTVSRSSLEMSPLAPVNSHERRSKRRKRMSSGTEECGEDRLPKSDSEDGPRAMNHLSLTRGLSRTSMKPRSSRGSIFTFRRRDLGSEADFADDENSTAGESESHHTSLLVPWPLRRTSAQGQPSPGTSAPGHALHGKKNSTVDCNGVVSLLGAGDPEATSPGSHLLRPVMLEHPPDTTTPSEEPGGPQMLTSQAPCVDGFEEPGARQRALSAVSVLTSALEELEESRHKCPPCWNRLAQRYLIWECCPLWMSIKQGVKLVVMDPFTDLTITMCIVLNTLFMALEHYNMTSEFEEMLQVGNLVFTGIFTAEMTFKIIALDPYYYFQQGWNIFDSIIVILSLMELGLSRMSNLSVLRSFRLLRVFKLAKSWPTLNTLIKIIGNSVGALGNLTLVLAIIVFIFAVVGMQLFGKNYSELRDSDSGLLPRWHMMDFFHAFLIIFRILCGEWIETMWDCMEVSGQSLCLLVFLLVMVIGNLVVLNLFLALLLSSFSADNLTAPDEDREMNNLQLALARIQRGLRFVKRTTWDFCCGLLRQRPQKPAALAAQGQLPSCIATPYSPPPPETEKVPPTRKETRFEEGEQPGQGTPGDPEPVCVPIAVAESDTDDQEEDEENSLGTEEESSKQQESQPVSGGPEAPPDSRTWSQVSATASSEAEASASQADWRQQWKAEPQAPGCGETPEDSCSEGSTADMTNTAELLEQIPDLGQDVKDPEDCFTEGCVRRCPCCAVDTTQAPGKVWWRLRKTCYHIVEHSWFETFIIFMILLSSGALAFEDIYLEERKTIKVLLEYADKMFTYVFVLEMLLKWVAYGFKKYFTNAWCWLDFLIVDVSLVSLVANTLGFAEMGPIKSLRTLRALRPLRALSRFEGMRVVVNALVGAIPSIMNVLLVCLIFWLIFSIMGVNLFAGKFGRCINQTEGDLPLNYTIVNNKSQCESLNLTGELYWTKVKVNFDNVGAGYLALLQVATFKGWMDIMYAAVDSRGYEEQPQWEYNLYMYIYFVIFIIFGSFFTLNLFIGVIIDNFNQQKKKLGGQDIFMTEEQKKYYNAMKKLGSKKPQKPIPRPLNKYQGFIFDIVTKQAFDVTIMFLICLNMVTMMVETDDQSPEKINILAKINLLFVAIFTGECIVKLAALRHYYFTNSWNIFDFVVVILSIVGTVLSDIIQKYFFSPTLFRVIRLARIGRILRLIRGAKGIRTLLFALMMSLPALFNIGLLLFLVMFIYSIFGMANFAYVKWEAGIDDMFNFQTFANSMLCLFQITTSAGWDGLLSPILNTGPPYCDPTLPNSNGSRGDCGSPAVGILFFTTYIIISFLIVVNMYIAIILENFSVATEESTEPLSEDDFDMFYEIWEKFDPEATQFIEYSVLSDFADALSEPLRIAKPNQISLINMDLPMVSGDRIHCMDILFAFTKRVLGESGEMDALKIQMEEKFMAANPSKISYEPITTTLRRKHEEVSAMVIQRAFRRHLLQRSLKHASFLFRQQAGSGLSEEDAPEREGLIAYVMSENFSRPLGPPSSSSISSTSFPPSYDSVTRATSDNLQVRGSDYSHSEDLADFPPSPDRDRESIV
As to the kind of experiment: FRET assay, human Nav1.5 channels (HEK293, EFS on FDSS). The conditions noted are these: read-out: activity (IC50) against Nav1.5. As to the method:
as §1, §2
(§5) Each HEK293 cells expressing human Nav1.3 channels and HEK293 cells expressing human Nav1.5 channels are grown in T225 flasks, in a 5% CO2 humidified incubator to about 80% confluence. Media composition consists of Dulbecco's Modified Eagle Medium (high glucose), 10% FCS, 100 units/mL Penicillin, 100 microgram/mL Streptomycin and 500 microgram/mL Geneticin™. […]
as §3, §4

Experiment [4] concerns the target T4, human Nav1.3 (Homo sapiens, UniProt Q9NY46).
T4 construct: expressed in transfected cells; host or cells: HEK293
As to the kind of experiment: FRET assay, human Nav1.3 channels (HEK293, EFS on FDSS). The conditions noted are these: read-out: activity (IC50) against Nav1.3. The protocol:
as §1, §2, §5, §3, §4

T2 sequence (Q15858 whole entry): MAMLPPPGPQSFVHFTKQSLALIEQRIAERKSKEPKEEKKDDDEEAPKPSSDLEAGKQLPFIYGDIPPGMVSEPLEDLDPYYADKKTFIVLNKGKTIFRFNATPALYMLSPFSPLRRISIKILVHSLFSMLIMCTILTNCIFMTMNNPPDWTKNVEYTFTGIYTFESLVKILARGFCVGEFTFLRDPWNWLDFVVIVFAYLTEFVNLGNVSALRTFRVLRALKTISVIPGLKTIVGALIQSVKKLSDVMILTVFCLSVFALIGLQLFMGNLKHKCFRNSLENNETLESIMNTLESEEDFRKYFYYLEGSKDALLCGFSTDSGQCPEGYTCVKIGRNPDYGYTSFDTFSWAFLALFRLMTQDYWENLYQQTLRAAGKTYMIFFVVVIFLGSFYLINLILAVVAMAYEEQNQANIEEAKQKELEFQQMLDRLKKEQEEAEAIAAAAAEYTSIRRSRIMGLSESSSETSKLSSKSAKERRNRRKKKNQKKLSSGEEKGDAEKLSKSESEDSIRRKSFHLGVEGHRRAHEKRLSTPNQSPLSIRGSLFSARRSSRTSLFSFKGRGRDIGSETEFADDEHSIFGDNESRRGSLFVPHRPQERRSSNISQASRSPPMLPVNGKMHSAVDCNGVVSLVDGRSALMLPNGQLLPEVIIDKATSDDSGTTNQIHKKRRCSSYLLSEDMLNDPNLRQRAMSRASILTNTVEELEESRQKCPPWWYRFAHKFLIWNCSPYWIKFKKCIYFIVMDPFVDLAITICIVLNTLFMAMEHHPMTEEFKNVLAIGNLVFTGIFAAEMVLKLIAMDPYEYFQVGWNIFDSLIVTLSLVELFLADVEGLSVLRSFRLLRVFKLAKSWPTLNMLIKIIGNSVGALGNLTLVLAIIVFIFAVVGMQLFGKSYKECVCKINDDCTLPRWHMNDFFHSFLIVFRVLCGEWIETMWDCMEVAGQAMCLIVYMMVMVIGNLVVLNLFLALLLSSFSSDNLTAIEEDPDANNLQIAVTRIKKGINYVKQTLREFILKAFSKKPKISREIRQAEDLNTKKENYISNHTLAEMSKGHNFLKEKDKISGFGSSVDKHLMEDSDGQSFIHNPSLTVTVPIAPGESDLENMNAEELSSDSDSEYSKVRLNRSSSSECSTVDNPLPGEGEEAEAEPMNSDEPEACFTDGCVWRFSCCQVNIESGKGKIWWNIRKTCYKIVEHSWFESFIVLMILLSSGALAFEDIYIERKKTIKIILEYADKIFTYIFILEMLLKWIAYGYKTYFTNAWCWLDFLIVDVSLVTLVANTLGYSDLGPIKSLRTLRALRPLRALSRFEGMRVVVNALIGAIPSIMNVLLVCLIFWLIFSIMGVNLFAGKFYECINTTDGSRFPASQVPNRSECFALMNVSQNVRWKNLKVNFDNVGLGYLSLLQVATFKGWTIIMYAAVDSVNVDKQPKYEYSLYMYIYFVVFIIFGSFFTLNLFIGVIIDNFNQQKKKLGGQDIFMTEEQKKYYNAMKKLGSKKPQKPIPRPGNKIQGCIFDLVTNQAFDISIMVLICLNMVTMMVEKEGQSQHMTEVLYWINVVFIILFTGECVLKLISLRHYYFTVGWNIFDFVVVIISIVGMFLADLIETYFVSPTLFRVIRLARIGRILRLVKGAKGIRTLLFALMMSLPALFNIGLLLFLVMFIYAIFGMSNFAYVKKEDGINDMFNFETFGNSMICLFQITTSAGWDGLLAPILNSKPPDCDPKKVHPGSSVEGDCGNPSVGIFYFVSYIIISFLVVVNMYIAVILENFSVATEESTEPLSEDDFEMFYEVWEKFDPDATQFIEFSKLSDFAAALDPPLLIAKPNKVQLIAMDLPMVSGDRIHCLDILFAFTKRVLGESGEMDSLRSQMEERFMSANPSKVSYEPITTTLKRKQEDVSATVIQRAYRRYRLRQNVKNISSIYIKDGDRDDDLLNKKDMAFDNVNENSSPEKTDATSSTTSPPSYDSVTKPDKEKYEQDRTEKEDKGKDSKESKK
T1 sequence (Q15858 whole entry): as above

Take `CC(=O)Nc1cc(C(C)NC(=O)c2ccc(OCC(F)(F)F)cn2)cc(C)n1` (single isomer, unassigned) [Example 29, N-(1-(2-acetamido-6-methylpyridin-4-yl)ethyl)-5-(2,2,2-trifluoroethoxy) picolinamide]: the Ki in experiment [1] turned out to be 950 nM.

Regarding `CCC(=O)Nc1cc(CNC(=O)c2ccc(OCC(F)(F)F)nc2)cc(C)n1` [Example 12, N-((2-methyl-6-propionamidopyridin-4-yl)methyl)-6-(2,2,2-trifluoroethoxy) nicotinamide], the values for the half-maximal inhibitory concentration (IC50) in experiment [2], in experiment [3] and in experiment [4] were 1000 nM, above 30000 nM and 510 nM, respectively.

One may read the IC50 as the concentration needed to halve the response being measured.
